As usually defined, the half-life is how long it takes for the measured level to halve.

Where two headings read alike, the source gives them in different places.

The source of these data is article PMC4386948, “Artemether-lumefantrine co-administration with antiretrovirals: population pharmacokinetics and dosing implications” (British Journal of Clinical Pharmacology, 2014).

The conditions of data set [1]: cited from earlier work.
Data set [2] in a line: Population pharmacokinetics of artemether/dihydroartemisinin alone and with efavirenz, nevirapine or lopinavir/ritonavir (non-linear mixed effects modelling of plasma concentrations). The data set is classed as in vivo, human. The conditions noted are these: for Vc/F, apparent volume of distribution of the central compartment, population estimate [RSE %] / CL/F, apparent elimination clearance, population estimate [RSE %]: HIV-infected adults, oral artemether-lumefantrine, plasma; for CL/F, apparent elimination clearance, population estimate [RSE %]: parent fully converted to metabolite; for exposure: nevirapine or lopinavir/ritonavir (all three antiretroviral drugs); for LOPCL/F, effect on elimination clearance by concomitant treatment with lopinavir/ritonavir: concomitant lopinavir/ritonavir 400/100 mg, positive = increase. From the text:
Study 1 was a parallel group study in HIV-infected patients. Inclusion criteria were age >18 years, informed written consent and a confirmed HIV diagnosis. Exclusion criteria were anaemia (haemoglobin levels below 8 g dl^-1), viral loads above 400 counts ml^-1, malaria parasitaemia, abnormal liver or renal function, pregnancy, the use of substances which inhibit or induce CYP enzymes or P-glycoprotein, use of herbal medicines, prolonged QT interval, or any intercurrent illness. Ethics approval was received from the Uganda National HIV/AIDS Research Committee (ARC 056) and the Uganda National Council of Science and Technology (HS 195) and the study was registered with http://ClinicalTrials.gov (NCT 00619944). Study 2 was a three period, crossover study in HIV-infected patients. Inclusion and exclusion criteria were the same as for study 1 (i.e. age >18 years, informed written consent and a confirmed HIV diagnosis) except that there were no restrictions based on viral load, and patients with hypersensitivity to artemisinins, lumefantrine or halofantrine or any history of cardiac disease were excluded from the study. Ethics approval was received from the Uganda National HIV/AIDS Research Committee (ARC 059) and from the Uganda National Council of Science and Technology (HS 196). The study was registered at http://ClinicalTrials.gov (NCT00620438). Patients in the first arm were treated with 400/100 mg of lopinavir/ritonavir (Aluvia®, Abbott Laboratories, Abbott Park, Illinois, USA) and two nucleoside reverse transcriptase inhibitors (zidovudine and didanosine or tenofovir and emtricitabine, regional non-controlled procurement). The drugs were taken twice daily for at least 1 month before the start of the study. Patients in the second arm had not yet started their HIV therapy. At the initiation of the study all patients received a single dose of 80 mg artemether and 480 mg lumefantrine (four tablets) (Coartem®, Novartis Pharma AG, Basel, Switzerland; Batch number: F0660). Venous plasma samples were drawn at 1, 2, 4, 6, 8, 12, 24, 48 and 72 h post-dose. At the start of the study, all patients received a standard treatment of artemether and lumefantrine (80/480 mg twice daily for 3 days; Coartem®). Plasma samples were collected after the last dose at 1, 2, 4, 8, 12, 24, 48, 72, 96 and 120 h post-dosing. […] Patients received HIV treatment alone for 1 month and then were given a standard six dose treatment of artemether and lumefantrine concomitantly. Plasma samples were again collected after the last artemether-lumefantrine dose. Artemether/dihydroartemisinin and lumefantrine were quantified in plasma samples according to previously published methods. Artemether and dihydroartemisinin were measured using solid phase extraction and liquid chromatography coupled with tandem mass spectrometric detection. The total coefficient of variation (%CV) was less than 6% and the lower limit of quantification was set to 1.4 ng ml^-1. Lumefantrine was measured using solid phase extraction followed by liquid chromatography with ultraviolet detection. The total coefficient of variation was below 6% and the lower limit of quantification was set to 25 ng ml^-1. Modelling and simulations were performed in NONMEM v7.12 (Icon Development Solutions, Ellicott City, Maryland, USA). Model discrimination was based on the objective function value (OFV) which is proportional to -2 times the log-likelihood of the data. […]2.6.0 was used to document the modelling process. R v2.14.2 (the R Foundation for Statistical Computing, Vienna, Austria) and the package Xpose v4.3.5 [43] was used to perform model diagnostics. Perl-speaks-NONMEM v3.5.3 was used for automation throughout the modelling process. Data below the limit of quantification were initially omitted or modelled as categorical data (M3-method), if necessary. […]

Data set [3] can be described thus: Population pharmacokinetics of lumefantrine/desbutyl-lumefantrine alone and with efavirenz, nevirapine or lopinavir/ritonavir (non-linear mixed effects modelling of plasma concentrations). The conditions noted are these: for CL/F, apparent elimination clearance, population estimate [RSE %]: parent fully converted to metabolite; for LOPCL/F, effect on elimination clearance by concomitant treatment with lopinavir/ritonavir: concomitant lopinavir/ritonavir 400/100 mg; for LOPCL/F, effect on elimination clearance by concomitant treatment with lopinavir/ritonavir / EFZCL/F, effect on elimination clearance by concomitant treatment with efavirenz: positive = increase; for EFZCL/F, effect on elimination clearance by concomitant treatment with efavirenz: concomitant efavirenz 600 mg. The data set is classed as in vivo, human. From the text:
Study 1 was a parallel group study in HIV-infected patients. Inclusion criteria were age >18 years, informed written consent and a confirmed HIV diagnosis. Exclusion criteria were anaemia (haemoglobin levels below 8 g dl^–1), viral loads above 400 counts ml^−1, malaria parasitaemia, abnormal liver or renal function, pregnancy, the use of substances which inhibit or induce CYP enzymes or P-glycoprotein, use of herbal medicines, prolonged QT interval, or any intercurrent illness. Ethics approval was received from the Uganda National HIV/AIDS Research Committee (ARC 056) and the Uganda National Council of Science and Technology (HS 195) and the study was registered with http://ClinicalTrials.gov (NCT 00619944).
Study 2 was a three period, crossover study in HIV-infected patients. Inclusion and exclusion criteria were the same as for study 1 (i.e. age >18 years, informed written consent and a confirmed HIV diagnosis) except that there were no restrictions based on viral load, and patients with hypersensitivity to artemisinins, lumefantrine or halofantrine or any history of cardiac disease were excluded from the study. Ethics approval was received from the Uganda National HIV/AIDS Research Committee (ARC 059) and from the Uganda National Council of Science and Technology (HS 196). The study was registered at http://ClinicalTrials.gov (NCT00620438).
Patients in the first arm were treated with 400/100 mg of lopinavir/ritonavir (Aluvia®, Abbott Laboratories, Abbott Park, Illinois, USA) and two nucleoside reverse transcriptase inhibitors (zidovudine and didanosine or tenofovir and emtricitabine, regional non-controlled procurement). The drugs were taken twice daily for at least 1 month before the start of the study. Patients in the second arm had not yet started their HIV therapy. At the initiation of the study all patients received a single dose of 80 mg artemether and 480 mg lumefantrine (four tablets) (Coartem®, Novartis Pharma AG, Basel, Switzerland; Batch number: F0660). Venous plasma samples were drawn at 1, 2, 4, 6, 8, 12, 24, 48 and 72 h post-dose.
At the start of the study, all patients received a standard treatment of artemether and lumefantrine (80/480 mg twice daily for 3 days; Coartem®). Plasma samples were collected after the last dose at 1, 2, 4, 8, 12, 24, 48, 72, 96 and 120 h post-dosing. After 1 week of wash-out, patients started HIV treatment with either nevirapine (200 mg) or efavirenz (600 mg) combined with the nucleoside reverse transcriptase inhibitors zidovudine and lamivudine. Patients received HIV treatment alone for 1 month and then were given a standard six dose treatment of artemether and lumefantrine concomitantly. Plasma samples were again collected after the last artemether-lumefantrine dose.
Artemether/dihydroartemisinin and lumefantrine were quantified in plasma samples according to previously published methods. Artemether and dihydroartemisinin were measured using solid phase extraction and liquid chromatography coupled with tandem mass spectrometric detection. […] Lumefantrine was measured using solid phase extraction followed by liquid chromatography with ultraviolet detection.
Desbutyl-lumefantrine was measured using liquid chromatography (Model 1200 system, Agilent Technologies) coupled with tandem mass spectrometric detection (API5000 triple-quadrupole system, AB Sciex). Desbutyl-lumefantrine and its analogue internal standard (C28H28CL3NO [39]) were extracted from plasma samples (100 μl) by protein precipitation followed by phospholipid removal (Hybrid SPE-Precipitation 96-wellplate, 575656-U, Supelco).

The mark [4] stands for this setting: HIV-infected adults, oral artemether-lumefantrine, plasma.
Setting [5] is: concomitant lopinavir/ritonavir.
Where [6] appears, read: stated in methods, no reference given.

On to `CO[C@H]1O[C@@H]2O[C@@]3(C)CC[C@H]4[C@H](C)CC[C@@H]([C@H]1C)[C@@]24OO3` [artemether], for which the terminal half-life in data set [1] was 1.5 to 2.0 h. For the same molecule, in data set [2], the “Vc/F, apparent volume of distribution of the central compartment, population estimate [RSE %]” value (“Vc/F, apparent volume of distribution … [RSE %]” for short) was 1090 [8.69] l; the “CL/F, apparent elimination clearance, population estimate [RSE %]” value (“CL/F … [RSE %]” below) is 317 [8.25] l h^−1; the “LOPCL/F, effect on elimination clearance by concomitant treatment with lopinavir/ritonavir” value (“LOPCL/F, effect … with lopinavir/ritonavir” below) turned out to be 32.8%. Also, the “Hill coefficient in the maturation model (auto-induction)” value in data set [2] (MMAX 1 FIX, MF50 62 FIX, reduced dataset) was 0.445 [43.9 ^‡]. For the same molecule, in data set [2] (concomitant efavirenz), the “decrease of relative bioavailability” value was 71% and the exposure entry is given as “decreased”. Moreover, in data set [2] (listed as Artemether), the “LOPCL/F, effect … with lopinavir/ritonavir” value is 32.8 [21.5] %. Besides, in data set [2] (concomitant nevirapine), the “decrease of relative bioavailability” value is 66%. For the same molecule, the “MTT, mean transit time of the absorption phase, population estimate [RSE %]” value in data set [2] (three transit compartments) was 0.970 [6.58] h.

`CCCCNCC(O)c1cc(Cl)cc2c1-c1ccc(Cl)cc1/C2=C/c1ccc(Cl)cc1` (centres unmarked) [desbutyl-lumefantrine]: in data set [3] (setting [4]), the “CL/F … [RSE %]” value was 489 [5.98] l h^−1. Besides, the exposure result in data set [3] (setting [5]) is reported as “decreased exposure”; in data set [3] (concomitant nevirapine, due to lower bioavailability of lumefantrine), “decreased”. Besides, the “LOPCL/F, effect … with lopinavir/ritonavir” value in data set [3] is 392%; in data set [3] (listed as Desbutyl-Lumefantrine), 392 [17.6] %.

Turning to `C[C@H]1[C@@H](O)O[C@@H]2O[C@@]3(C)CC[C@H]4[C@H](C)CC[C@@H]1[C@@]24OO3` [dihydroartemisinin], in data set [1], the half-life was 0.8 to 2.1 h. Besides, in data set [1] (setting [6]), the terminal half-life is 1 to 2 h. For the same molecule, in data set [2], the “Vc/F, apparent volume of distribution … [RSE %]” value was 14.9 [39.8] l; the “CL/F … [RSE %]” value is 160 [4.93] l h^−1; the “LOPCL/F, effect … with lopinavir/ritonavir” value is reported as 143%. Moreover, the exposure entry in data set [2] (concomitant efavirenz) was “decreased”. For the same molecule, in data set [2] (listed as Dihydroartemisinin), the “LOPCL/F, effect … with lopinavir/ritonavir” value was 143 [19.7] %. Also, the “decrease of elimination clearance” value in data set [2] (concomitant nevirapine) is 44%. In data set [2] (concomitant nevirapine 200 mg), the “NEVCL/F, effect on elimination clearance by concomitant treatment with nevirapine” value is −44.5 [14.5] %.

With `CCCCN(CCCC)CC(O)c1cc(Cl)cc2c1-c1ccc(Cl)cc1/C2=C/c1ccc(Cl)cc1` (centres unmarked) [lumefantrine], in data set [1], the elimination half-life was 48 to 96 h; the “increase of exposure for a 100% dose increase (dose limited absorption, assumed in simulations)” value is listed as 70%; the “systemic exposure relative to its metabolite desbutyl-lumefantrine” value is 85- to 300 fold. The terminal half-life in data set [1] (setting [6]) is 79.2 h. Moreover, in data set [3] (setting [4]), the “Q/F, inter-compartment clearance, population estimate [RSE %]” value is 2.86 [19.4] l h^−1; the “VP/F, apparent volume of distribution of the peripheral compartment, population estimate [RSE %]” value was 111 [9.14] l; the “Vc/F, apparent volume of distribution … [RSE %]” value is 68.9 [27.1] l; the “CL/F … [RSE %]” value is 4.77 [5.30] l h^−1. In data set [3], the “EFZCL/F, effect on elimination clearance by concomitant treatment with efavirenz” value stood at 72.6% and the “LOPCL/F, effect … with lopinavir/ritonavir” value was −62.1 [8.48] %. Moreover, the “EFZCL/F, effect on elimination clearance by concomitant treatment with efavirenz” value in data set [3] (listed as Lumefantrine) is 72.6 [17.2] %. Besides, the “decrease of elimination clearance” value in data set [3] (setting [5]) was 62%. Further, the “lowering of relative bioavailability” value in data set [3] (concomitant nevirapine) was found to be 25%. Besides, the “MTT, mean transit time of the absorption, population estimate [RSE %]” value in data set [3] (one transit compartment) is 6.27 [21.2] h.
